Laboratory results taken from article PMC6804443 (Acta Pharmaceutica Sinica. B, 2019).
Entries after “also recorded” stand apart in the source; their conditions may differ.

Legend:
[1] = biological target: CYP2C19 (Homo sapiens, UniProt P33261); assay: CYP2C19 inhibition by XueBiJing compounds, cDNA-expressed enzyme [CEC→CHC]; assay type: in vitro ADME
[2] = biological target: T1, UGT1A1 (Homo sapiens, UniProt P22309); assay: UGT1A1 inhibition by XueBiJing compounds, cDNA-expressed enzyme [E2→E23βG]; assay type: in vitro ADME
T1 sequence (P22309 26-533): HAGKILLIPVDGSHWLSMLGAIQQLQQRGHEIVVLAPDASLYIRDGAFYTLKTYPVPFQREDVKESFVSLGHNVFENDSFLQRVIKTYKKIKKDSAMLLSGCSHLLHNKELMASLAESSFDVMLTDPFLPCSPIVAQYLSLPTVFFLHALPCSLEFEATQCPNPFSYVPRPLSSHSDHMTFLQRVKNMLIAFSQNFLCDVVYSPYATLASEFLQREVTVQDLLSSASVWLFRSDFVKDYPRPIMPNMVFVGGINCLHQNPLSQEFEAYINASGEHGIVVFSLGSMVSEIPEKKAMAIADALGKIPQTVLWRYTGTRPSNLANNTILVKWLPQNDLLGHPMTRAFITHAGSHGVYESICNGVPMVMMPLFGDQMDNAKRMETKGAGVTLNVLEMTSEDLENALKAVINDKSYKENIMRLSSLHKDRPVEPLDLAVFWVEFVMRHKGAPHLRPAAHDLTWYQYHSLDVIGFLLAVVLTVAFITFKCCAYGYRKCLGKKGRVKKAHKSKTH

[3] = biological target: T2, OAT3 (Homo sapiens, UniProt Q8TCC7); assay type: in vitro ADME
T2 sequence (Q8TCC7 1-542): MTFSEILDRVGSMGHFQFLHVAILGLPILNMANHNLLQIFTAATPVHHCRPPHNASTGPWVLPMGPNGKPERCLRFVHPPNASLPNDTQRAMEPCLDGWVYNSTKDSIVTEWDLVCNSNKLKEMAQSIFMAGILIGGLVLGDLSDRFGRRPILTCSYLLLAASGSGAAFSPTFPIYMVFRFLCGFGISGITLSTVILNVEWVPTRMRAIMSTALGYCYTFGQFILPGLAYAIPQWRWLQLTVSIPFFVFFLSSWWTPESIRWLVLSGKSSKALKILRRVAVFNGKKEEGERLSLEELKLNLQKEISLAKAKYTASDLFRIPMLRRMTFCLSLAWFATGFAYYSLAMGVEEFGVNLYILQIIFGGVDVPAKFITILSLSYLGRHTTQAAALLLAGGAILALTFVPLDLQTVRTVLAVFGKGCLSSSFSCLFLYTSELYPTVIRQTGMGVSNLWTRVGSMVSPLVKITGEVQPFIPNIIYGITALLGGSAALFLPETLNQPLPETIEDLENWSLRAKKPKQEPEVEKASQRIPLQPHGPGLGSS

[4] = biological target: CYP2C9 (Homo sapiens, UniProt P11712); assay type: in vitro ADME
[5] = test system: human drug metabolizing enzymes and transporters; assay: Inhibitory DDI index of XueBiJing compounds as perpetrators; settings: XueBiJing at label dose; range over the named compounds
[6] = biological target: T3, OATP1B3 (Homo sapiens, UniProt Q9NPD5); assay: in vitro; assay type: in vitro ADME
T3 sequence (Q9NPD5 1-702): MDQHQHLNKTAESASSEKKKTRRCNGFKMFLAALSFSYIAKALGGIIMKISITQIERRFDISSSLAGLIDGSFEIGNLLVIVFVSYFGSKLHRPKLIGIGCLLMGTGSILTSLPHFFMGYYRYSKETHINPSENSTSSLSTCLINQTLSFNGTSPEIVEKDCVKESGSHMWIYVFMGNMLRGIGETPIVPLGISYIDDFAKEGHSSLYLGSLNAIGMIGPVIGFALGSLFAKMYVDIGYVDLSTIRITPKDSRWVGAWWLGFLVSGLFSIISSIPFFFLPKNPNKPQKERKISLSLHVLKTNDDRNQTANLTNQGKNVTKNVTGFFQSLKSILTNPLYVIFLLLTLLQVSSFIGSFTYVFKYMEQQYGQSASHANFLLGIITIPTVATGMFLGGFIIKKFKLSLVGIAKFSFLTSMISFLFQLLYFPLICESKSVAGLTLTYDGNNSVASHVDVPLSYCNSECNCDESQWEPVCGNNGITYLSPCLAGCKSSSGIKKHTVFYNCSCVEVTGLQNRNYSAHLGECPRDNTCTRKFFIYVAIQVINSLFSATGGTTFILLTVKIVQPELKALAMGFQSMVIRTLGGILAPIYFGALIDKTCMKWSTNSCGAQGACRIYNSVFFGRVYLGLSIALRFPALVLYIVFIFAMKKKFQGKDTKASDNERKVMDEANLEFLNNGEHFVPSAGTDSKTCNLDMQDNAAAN

[7] = cited from earlier work
[8] = test system: CYP1A2; settings: higher concentrations; range over the named compounds and enzymes
[9] = XueBiJing compounds; cited from earlier work
[10] = human, XueBiJing 100 mL via 75-min intravenous infusion

CYP2C19, sequence (P33261 whole entry): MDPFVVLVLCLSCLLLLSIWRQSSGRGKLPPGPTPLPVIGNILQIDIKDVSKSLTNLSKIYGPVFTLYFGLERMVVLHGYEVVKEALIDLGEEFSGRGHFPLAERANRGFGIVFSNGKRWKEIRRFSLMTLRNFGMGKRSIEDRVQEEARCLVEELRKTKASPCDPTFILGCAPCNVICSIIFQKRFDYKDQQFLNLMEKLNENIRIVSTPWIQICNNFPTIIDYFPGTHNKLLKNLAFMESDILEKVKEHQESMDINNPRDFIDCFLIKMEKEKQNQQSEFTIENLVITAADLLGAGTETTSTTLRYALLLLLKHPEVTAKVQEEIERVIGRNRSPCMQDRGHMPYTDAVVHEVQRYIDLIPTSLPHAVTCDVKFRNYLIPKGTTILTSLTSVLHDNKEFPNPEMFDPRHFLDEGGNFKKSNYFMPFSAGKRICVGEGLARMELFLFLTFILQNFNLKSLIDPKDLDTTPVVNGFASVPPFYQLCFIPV
CYP2C9, sequence (P11712 whole entry): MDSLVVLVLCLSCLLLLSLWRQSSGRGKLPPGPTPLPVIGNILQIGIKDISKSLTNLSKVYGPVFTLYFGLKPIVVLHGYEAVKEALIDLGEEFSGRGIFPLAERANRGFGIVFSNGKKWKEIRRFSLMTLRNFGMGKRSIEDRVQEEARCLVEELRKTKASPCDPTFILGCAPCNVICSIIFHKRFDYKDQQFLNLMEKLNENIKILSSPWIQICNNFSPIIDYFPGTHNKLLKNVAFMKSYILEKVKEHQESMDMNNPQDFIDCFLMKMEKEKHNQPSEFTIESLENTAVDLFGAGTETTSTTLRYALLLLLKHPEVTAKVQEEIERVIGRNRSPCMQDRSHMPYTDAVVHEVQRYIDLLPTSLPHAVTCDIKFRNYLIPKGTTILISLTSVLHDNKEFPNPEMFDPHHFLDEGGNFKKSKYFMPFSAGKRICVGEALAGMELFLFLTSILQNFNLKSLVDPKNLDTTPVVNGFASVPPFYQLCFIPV

IC50 [1]: 19 ± 4 µM | inhibition at 100 μmol/L ([1]; human, cDNA-expressed CYP2C19, probe CEC (25 μmol/L)): 68 to 80% | IC50 [2]: 10 ± 1 µM | inhibition at 100 μmol/L ([2]; human, cDNA-expressed UGT1A1, probe E2 (20 μmol/L), E23βG formed): > 90% | IC50 [3]: 31 ± 8 µM | Time-dependent inhibition of CYP2C9 [4]: negligible | DDI index for inhibition of CYP2C9, CYP2C19, OATP1B1, OATP1B3, OAT1 and/or OAT3 [5]: 0.00003–0.06 | Km [6]: 14 µM | mRNA-T/U ratio, CYP1A2 [8]: 4.0 to 9.6
SMILES: O=C(/C=C/c1ccc(O)c2c1[C@H](C(=O)O[C@H](Cc1ccc(O)c(O)c1)C(=O)O)[C@@H](c1ccc(O)c(O)c1)O2)O[C@H](Cc1ccc(O)c(O)c1)C(=O)O [X10, salvianolic acid B]
fu-p (unbound fraction in plasma) ([7]; human plasma): 3% | Cmax [7, 10]: 0.1 µM | VSS [7, 10]: 1.28 L/kg | t1/2 [7, 10]: 12 min | Major elimination route ([7]; human): Hepatobiliary excretion; also recorded: Hepatic methylation | Membrane permeability [9]: Poor
